The text below walks through data of ChEMBL document CHEMBL1157064, “Homoisoflavonoids from the fibrous roots of Polygonatum odoratum with glucose uptake-stimulatory activity in 3T3-L1 adipocytes” (J Nat Prod, 2010).

The subject of this test is 3T3-L1. Nature of the test: Increase in insulin-stimulated [3H]2-deoxy-D-glucose uptake in mouse 3T3L1cells at 1 uM after 3 days by liquid scintillation counting relative to insulin. The test is classed as functional, cell-based.

Calls of active or inactive are those of the source. No cut-off for these calls is given here.

On to `COc1c(O)c(C)c(O)c2c1OC[C@@H](Cc1ccc(O)cc1)C2=O`, for which the result was Active.

On to `COc1ccc([C@@H]2CC(=O)c3c(O)cc(O[C@@H]4O[C@H](CO[C@@H]5O[C@@H](C)[C@H](O)[C@@H](O)[C@H]5O)[C@@H](O)[C@H](O)[C@H]4O)cc3O2)cc1O`, for which the outcome was Active. Regarding `Cc1c(O)c(C)c2c(c1O)C(=O)[C@H](Cc1ccc(O)cc1)CO2`, the result was Active. As for `Cc1c(O)c(C)c2c(c1O)C(=O)/C(=C/c1ccc(O)cc1)CO2`, the entry is “Active”; as for `COc1ccc(C[C@@H]2COc3c(C)c(O)c(C)c(O)c3C2=O)cc1`, “Active”.

For `COc1ccc(CC2COc3c(C)c(O)c(C)c(O)c3C2=O)cc1O` (racemic), the result was Active. As for `COc1ccc(C[C@@H]2COc3c(OC)c(O)c(C)c(O)c3C2=O)cc1`, the entry is “Active”. Consider `COc1c(O[C@@H]2O[C@H](CO)[C@@H](O)[C@H](O)[C@H]2O)cc2occ(-c3ccc(O)cc3)c(=O)c2c1O`, for which the outcome was Active.

Regarding `O=C1/C(=C/c2ccc(O)cc2)COc2cc(O[C@@H]3O[C@H](CO)[C@@H](O)[C@H](O)[C@H]3O)cc(O)c21`, the outcome was Active. The entry for `COc1ccc(CC2COc3c(OC)c(O)c(C)c(O)c3C2=O)c(O)c1` (racemic) is “Active”; for `COc1ccc(CC2COc3c(C)c(O)c(C)c(O)c3C2=O)c(O)c1` (racemic) it is “Active”.
